According to patent US20110124740A1, “NOVEL DIARYL HEPATONOID-BASED COMPOUNDS AND USE THEREOF” (priority 2008, published 2011):
Where two headings read alike, the source gives them in different places.

Experiments:
[1] = tested on: CEF (chicken embryo fibroblasts)
[2] = tested on: avian influenza virus KBNP-0028 (KCTC 10866BP); type: cell-based, A/chicken/Korea/SNU0028/2000(H9N2)

In the case of `O=C(CCc1ccc(O)c(O)c1)C[C@H](O)CCc1ccc(O)c(O)c1` [12B-AJ-15A, (5R)-1,7-bis(3,4-dihydroxyphenyl)-5-hydroxyheptane-3-one], the “Cytotoxicity (in words)” value [1] is reported as “no cytotoxicity”, the “Cytotoxicity (MTT assay value)” value ([1]; 6.25 μg/mL) is reported as 0.457 and the “Cytotoxicity (MTT assay value)” value ([1]; 12.5 μg/mL) is reported as 0.369. For the same molecule, the “Cytotoxicity (MTT assay value)” value ([1]; 25 μg/mL) was 0.320, the “Cytotoxicity (MTT assay value)” value ([1]; 50 μg/mL) was 0.369 and the “Cytotoxicity (MTT assay value)” value ([1]; 100 μg/mL) was 0.423. For the same molecule, the “Cytotoxicity (MTT assay value)” value ([1]; 200 μg/mL) was 0.538, the “Antiviral activity (in words)” value [2] was “had antiviral activity” and the “Number of wells wherein hemagglutination occurs (among 6 wells)” value (“Number” below) ([2]; 12.5 μg/mL) was 3. The “Number” value ([2]; 25 μg/mL) was 3, the “Number” value ([2]; 50 μg/mL) was 3 and the “Number” value ([2]; 100 μg/mL) was 3.
